Assay results reported in patent US20050209278A1, “Piperidinyl- and piperazinyl-sulfonylmethyl hydroxamic acids and their use as protease inhibitors” (priority 2002, published 2005).
Counter-ions that a name gives are not always drawn. Like-named read-outs stand apart in the source and are kept apart here.

What was measured:
[1] = biological target: T1, MMP-1 (Homo sapiens, UniProt P03956); test: In vitro MMP inhibition, Ki determination (fluorogenic substrate II); type: biochemical; conditions: read-out: MMP-1 Ki
T1 construct: made in house; host or cells: MMP-1-transfected HT-1080 cells (spent media)
T1 sequence (P03956 100-469): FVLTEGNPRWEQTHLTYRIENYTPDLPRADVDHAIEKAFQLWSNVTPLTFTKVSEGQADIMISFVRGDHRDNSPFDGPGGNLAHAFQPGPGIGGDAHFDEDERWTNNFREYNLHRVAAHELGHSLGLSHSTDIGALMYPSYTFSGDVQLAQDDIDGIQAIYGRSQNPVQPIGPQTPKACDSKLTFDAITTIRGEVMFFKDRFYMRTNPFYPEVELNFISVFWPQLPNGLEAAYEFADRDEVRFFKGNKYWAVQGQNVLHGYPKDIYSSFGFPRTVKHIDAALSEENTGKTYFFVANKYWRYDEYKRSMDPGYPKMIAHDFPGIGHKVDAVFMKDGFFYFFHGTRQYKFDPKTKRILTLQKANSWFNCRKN
Experimental: Several hydroxamic acids and salts thereof were analyzed in in vitro assays to determine their ability to inhibit the MMP cleavage of peptide substrates. […] and IC50 constants were calculated from the assayed hydroxamic acid-MMP interactions.
Human recombinant MMP-1, MMP-2, MMP-9, MMP-13, and MMP-14 were used in this assay. All enzymes were prepared in Assignee's laboratories following usual laboratory procedures. Protocols for the preparation and use of these enzymes are available in the scientific literature. See, e.g., Enzyme Nomenclature (Academic Press, San Diego, Calif., 1992) (and the citations therein). See also, Freije et al., “Molecular cloning and expression of collagenase-3, a novel human matrix metalloproteinase produced by breast carcinomas,” J Biol. Chem., 269(24), 16766-16773 (1994).
The MMP-1 proenzyme was purified from the spent media of MMP-1-transfected HT-1080 cells provided by Dr. Harold Welgus of Washington University (St. Louis, Mo.). The protein was purified on a zinc chelating column.
All MMPs were activated using 4-aminophenylmercuric acetate (“APMA”, Sigma Chemical, St. Louis, Mo.) or trypsin. MMP-9 also was activated using human recombinant MMP-3 (purified in Assignee's laboratory following standard cloning and purification techniques).
Two fluorogenic, methoxycoumarin-containing polypeptide substrates were used in the MMP inhibition assays: [drawing 427] Here, “Dpa” is 3-(2,4-dinitrophenyl)-L-2,3-diaminopropionyl group, and “MCA” is 7-methoxycoumarin-4-yl acetyl. Substrate (I) was purchased from Baychem (Redwood City, Calif.), and substrate II was prepared Assignee's laboratory. Substrate I was used in the IC50 determination assays, while substrate II was used in the Ki determination assays. In the absence of MMP inhibitory activity, either substrate is cleaved at the Gly-Leu peptide bond. This cleavage separates the highly fluorogenic peptide from the 2,4-dinitrophenyl quencher, thus resulting in increase of fluorescent intensity.
The stock solutions of the assayed hydroxamic acids (or salts thereof) were prepared in 1% dimethyl sulfoxide (DMSO). These stock solutions were diluted in Buffer A (100 mM Tris-HCl, 100 mM NaCl, 10 mM CaCl2, 0.05% polyoxyethylene 23 lauryl ether, pH 7.5) to obtain solutions with different hydroxamic acid concentrations, i.e., assay solutions with different concentrations of the assayed MMP inhibitory compound. The experiment controls contained the same amount of Buffer A/DMSO as the assayed sample, but contained no hydroxamic acid (or salt thereof).
The assays from which the Ki determinations were made were performed as follows. The assayed hydroxamic acid samples were incubated in separate wells of untreated white polystyrene plates (Nunc Nalgene International, Rochester, N.Y.), and analyzed on a Tecan SpectraFlour Plus plate reader. The excitation wavelength was 330 nm, and the emission wavelength—420 nm. All samples (assayed hydroxamic acids and controls) were incubated in separate plate wells at room temperature for 1 hr in the presence of 4 μM of MMP substrate (II). In the absence of MMP inhibitory activity, substrate II was cleaved at the Gly-Leu bond resulting in an increase of relative fluorescence. Inhibition was observed as a reduced rate of this increase in relative fluorescence. The various hydroxamic acids were analyzed using a single low enzyme concentration with a single substrate concentration fixed at or below the Km. This protocol is a modification of method by Knight et al., FEBS Lett., 296(3), 263-266 (1992). Apparent inhibitory constants were determined by non-linear regression of reaction velocity as a function of inhibitor and enzyme concentration using Morrison's equation, as described by Kuzmic, Anal. Biochem. 286, 45-50 (2000). […] Since the substrate concentration was chosen to be at or below the Km, the apparent Ki's from this analysis were reported as Ki's without correction for the influence of substrate.

[2] = biological target: T2, MMP-13 (Homo sapiens, UniProt P45452); test: as above; type: biochemical; conditions: read-out: MMP-13 Ki
T2 construct: made in house; host or cells: baculovirus / insect cells
Procedure, shortened: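 Ki determined with human recombinant MMP-13, baculovirus-expressed as proenzyme and activated with APMA. Fluorogenic MCA/Dpa substrate II at 4 μM (at or below Km) with low enzyme in Tris buffer pH 7.5 with CaCl2. Incubation was 1 h at room temperature, with fluorescence read at 330/420 nm.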

[3] = human recombinant enzyme, 4 μM substrate II, room temperature, 1 hr

Ki ([1]; value not in parenthesis) [nM] | Ki ([2]; value not in parenthesis) [nM] | Ki [1, 3] [nM] | Ki [2, 3] [nM] | SMILES
1610 | 0.748 | – | – | CCc1ccc(N2CCN(S(=O)(=O)C3(C(=O)NO)CCOCC3)CC2)nc1 [Example 114]
> 10000 | 7.05 | – | – | CCCCOc1ccc(N2CCN(S(=O)(=O)C3(C(=O)NO)CCN(C(=O)c4cc5ccccc5s4)CC3)CC2)cc1 [Example 143]
– | – | > 10000 | 0.27 | CCCCCc1ccc(N2CCN(S(=O)(=O)C3(C(=O)NO)CCN(CCOC)CC3)CC2)cc1 [Example 6, N-Hydroxy-1-(2-methoxyethyl)-4-{[4-(4-pentylphenyl)piperazin-1-yl]sulfonyl}piperidine-4-carboxamide Dihydrochloride]
2380 | 0.423 | – | – | CCCc1ccc(N2CCN(S(=O)(=O)C3(C(=O)NO)CCOCC3)CC2)nc1 [Example 136]
– | – | > 10000 | 0.23 | CCCCCc1ccc(C2CCN(S(=O)(=O)C3(C(=O)NO)CCN(CCOC)CC3)CC2)cc1 [Example 15, N-hydroxy-1-(2-methoxyethyl)-4-{[4-(4-pentylpheyl)piperidin-1-yl]sulfonyl}piperidine-4-carboxamide Hydrochloride]
> 10000 | 6.18 | – | – | CCCCOc1ccc(N2CCN(S(=O)(=O)C3(C(=O)NO)CCN(C(=O)c4cc5ccccc5o4)CC3)CC2)cc1 [Example 127]
> 10000 | 9.38 | – | – | CCCCc1ccc(N2CCN(S(=O)(=O)C3(C(=O)NO)CCN(c4ccc(C)cc4)CC3)CC2)cc1 [Example 146]
1190 | 22.4 | – | – | O=C(NO)C1(S(=O)(=O)N2CCN(c3ncccn3)CC2)CCOCC1 [Example 107]
> 10000 | 0.306 | – | – | COCCN1CCC(C(=O)NO)(S(=O)(=O)N2CCN(c3ccc(OCC(F)(F)C(F)(F)F)cc3)CC2)CC1 [Example 144]
– | – | 1470 | 0.216 | O=C(NO)C1(S(=O)(=O)N2CCN(c3ccc(OC(F)(F)C(F)F)cc3)CC2)CCOCC1 [Example 4, 4-({4-[4-(1,1,2,2-tetrafluoroethoxy)phenyl]piperazinyl}sulfonyl)perhydro-2H-pyran-4-carbohydroxamic Acid]
> 10000 | 478 | – | – | COc1ccc(N2CCN(S(=O)(=O)C3(C(=O)NO)CCOCC3)CC2)nc1 [Example 108]
> 10000 | 2.58 | – | – | CCCCCCCCCc1cnc(N2CCN(S(=O)(=O)C3(C(=O)NO)CCOCC3)CC2)nc1 [Example 111]
7240 | 2.03 | – | – | CCCCOc1ccc(N2CCN(S(=O)(=O)C3(C(=O)NO)CCN(c4cc(C)ccn4)CC3)CC2)cc1 [Example 139]
> 10000 | 11.2 | – | – | CCCCOc1ccc(N2CCN(S(=O)(=O)C3(C(=O)NO)CCN(c4nc5ccccc5o4)CC3)CC2)cc1 [Example 150]
> 10000 | 0.68 | – | – | CCCCOc1ccc(N2CCN(S(=O)(=O)C3(C(=O)NO)CCN(c4ccc(O)cc4)CC3)CC2)cc1 [Example 121]
> 10000 | 0.03 | – | – | O=C(c1cccnc1)N1CCC(C(=O)NO)(S(=O)(=O)N2CCN(c3ccc(OCCCC(F)(F)F)cc3)CC2)CC1 [Example 122]
> 10000 | 5.74 | – | – | O=C(NO)C1(S(=O)(=O)N2CCN(c3ccc(SC(F)(F)F)cc3)CC2)CCN(Cc2ccccc2)CC1 [Example 152]
> 10000 | 1.31 | – | – | CCCCOc1ccc(N2CCN(S(=O)(=O)C3(C(=O)NO)CCN(c4ccccn4)CC3)CC2)cc1 [Example 149]
– | – | 7530 | 1.46 | CCOc1ccc(N2CCN(S(=O)(=O)C3(C(=O)NO)CCOCC3)CC2)cc1 [Example 3, 4-{[4-(4-ethoxyphenyl)piperazinyl]sulfonyl}perhydro-2H-pyran-4-carbohydroxamic Acid]
– | – | > 10000 | 2.78 | CCCCCc1ccc(N2CCN(S(=O)(=O)C3(C(=O)NO)CCN(CC)CC3)CC2)cc1F [Example 22, 1-ethyl-4-{[4-(3-fluoro-4-pentylphenyl)piperazin-1-yl]sulfonyl}-N-hydroxypiperidine-4-carboxamine Hydrochloride]
66.1 | 0.395 | – | – | O=C1c2ccccc2C(=O)N1CCCCc1ccc(N2CCN(S(=O)(=O)C3(C(=O)NO)CCOCC3)CC2)nc1 [Example 132]
> 10000 | 0.302 | – | – | CCCCOc1ccc(N2CCN(S(=O)(=O)C3(C(=O)NO)CCN(c4ccc(OCCOC)nn4)CC3)CC2)cc1 [Example 129]
– | – | > 10000 | 6.17 | CCCCCc1ccc(N2CCN(S(=O)(=O)C3(C(=O)NO)CCN(C(=O)C(F)(F)F)CC3)CC2)cc1 [Example 21, N-hydroxy-4-{[4-(4-pentylphenyl)piperazin-1-yl]sulfonyl}-1-(trifluoroacetyl)piperidine-4-carboxamide Hydrochloride]
– | – | 4780 | 0.5 | O=C(NO)C1(S(=O)(=O)N2CCC(c3cnc(OCC(F)(F)C(F)(F)F)cn3)CC2)CCOCC1 [Example 27]
> 10000 | 1.67 | – | – | CCCCOc1ccc(N2CCN(S(=O)(=O)C3(C(=O)NO)CCN(c4ccc(C)cn4)CC3)CC2)cc1 [Example 125]
> 10000 | 0.25 | – | – | CCCCOc1ccc(N2CCN(S(=O)(=O)C3(C(=O)NO)CCN(C(=O)OCCF)CC3)CC2)cc1 [Example 113]

SMILES | Ki ([1]; value not in parenthesis) [nM] | Ki ([2]; value not in parenthesis) [nM] | Ki [1, 3] [nM] | Ki [2, 3] [nM]
CCCCOc1ccc(C2CCN(S(=O)(=O)C3(C(=O)NO)CCN(CCOC)CC3)CC2)cc1 [Example 16, 4-{[4-(4-butoxyphenyl)piperidin-1-yl]sulfonyl}-N-hydroxy-1-(2-methoxyethyl)piperidine-4-carboxamide Hydrochloride] | – | – | > 10000 | 0.34
COCCN1CCC(C(=O)NO)(S(=O)(=O)N2CCC(c3ccc(OCCCC(F)(F)F)cc3)CC2)CC1 [Example 20, N-hydroxy-1-(2-methoxyethyl)-4-({4-[4-(4,4,4-trifluorobutoxy)phenyl]piperidin-1-yl}sulfonyl)piperidine-4-carboxamide Hydrochloride] | – | – | > 10000 | 0.15
